Results published in US20170216360A1, “METHODS AND COMPOSITIONS FOR IMPROVING HOMING OF CELLS INCLUDING MESENCHYMAL STEM CELLS” (SANOFI, priority 2014, published 2017).
Structures can show the parent of a compound that is named as a salt. Where two headings read alike, the source gives them in different places.

What was measured:
[1] = test system: CD11a surface expression on huMSCs; assay: Medium throughput screen: CD11a surface expression on MSCs, PE-CY5 anti-CD11a antibody, laser-scanning fluorescence microplate cytometer; assay type: cell-based, human; design: key to Cell surface ligand CD11a (induction of expression): NA = negative activity result; A = positive activity result; details: for EC50: read-out: Cell Surface Marker ED 50 (M) Molar Concentration of Compound for CD11a Expression
Method: An in vitro screen was performed for compounds that induce surface expression on huMSCs of the marker CD11a (LFA-1). This screen may be considered a medium throughput screen. Certain compounds that induce the increase of this surface marker were then selected for testing in an in vitro firm adhesion assay and/or in vivo systemic administration in an animal model of inflammation. The surface expression screen involved fluorophore-conjugated antibodies to the respective markers. Following pretreatment with the test compounds, samples of cells were incubated with the labeled antibodies for detection of surface marker expression and change relative to a reference level of untreated cells or negative control samples or values. Cells were pretreated with a concentration (3 μM) of each small molecule compound for 24 hours, followed by incubation with a fluorophore-conjugated anti-marker antibody to detect expression on MSC surface. Surface expression levels of marker ligands were then evaluated by laser-scanning fluorescence microplate cytometer. […] Cell viability in response to compounds was also tested to assess whether molecules have toxicity after 24 hours of pretreatment. Testing was performed on two different huMSC sources representing cells from different donors.
Further details of the screening approach are provided as follows. A unique single batch of bone marrow-derived MSC cells was prepared for the entire screening campaign by cell amplification using CellStack flasks and freezing in separate vials at passage P5. […] For each run, vials were thawed and cells directly seeded on 384-well plates at 3,000 cells per well in MSCGM medium. Following an overnight incubation, cells were treated with the indicated concentrations of compounds for 24 hours. Cells were washed in PBS, 3% BSA and incubated for one hour with PE-CY5-conjugated anti-CD11a monoclonal antibody (clone HI111). Expression of CD11a at the cell surface was detected using the Acumen Explorer, a laser-scanning fluorescence microplate cytometer after two PBS washings. HL-60 cells seeded at 10,000 cells per well and treated with 100 nM phorbol 12-myristate 13-acetate (PMA) for 24 h to induce cell adhesion were used as a positive control in each 384-well plate. Positive compounds were counter-screened for their auto-fluorescence by measuring the signal in the absence of antibody.
A single batch of bone marrow-derived MSC was prepared for the entire screening campaign by cell amplification using CellStack flasks and freezing in separate vials at passage P5. […] For each run, vials were thawed and cells directly seeded on 384-well plates at 3,000 cells per well in MSCGM medium. Following an overnight incubation, cells were pretreated with a low (0.1 μM) and high (3 μM) concentration of the compounds for 24 h. 9,000 cpds were tested in 112 assay plates, each 384-well plate contained 320 cpds (from column 5 to 24), one column for Max (Column2, HL60 cells) and one column for Min (Column4, MSC cells). Cells were washed in PBS, 3% BSA and incubated for one hour with PE-CY5-conjugated anti-CD11a monoclonal Ab (BD Biosciences). Expression of CD11a at the cell surface was detected after two PBS washes using the Acumen Explorer equipment, a laser-scanning fluorescence microplate cytometer. HL-60 cells (seeded at 10,000 cells per well and treated with 100 nM phorbol 12-myristate 13-acetate (PMA) for 24 h to induce cell adhesion) were used as a positive control in each 384-well plate. Positive compounds were counter-screened for their auto-fluorescence by measuring the signal in the absence of Ab. Shown in FIG. 4 is the global screening data. Using the Max, Min columns, we have calculated Max/Min ratio generated with CD11a Ab for each assay plate (signal/background ration in green columns was calculated for each of the 112 assay plates). […]

MSC secretome = assay: Secretomic analysis of small molecule-primed MSCs (Bio-plex immunoassays); assay type: cell-based, human; details: for MSC secretome changes, result in words: 3 μM for 24 hours
Method: A single batch of human MSCs (#7F3915) was used for all of these experiments. Cells were seeded at 25,000 cells/well in a 12-well microplate. The following day, cells were treated with the selected compound (3 μM) or DMSO (as control). After 24 hours of treatment, secretomic samples were collected, centrifuged and frozen. Secretomes of MSCs were assayed for cytokines, chemokines and growth factors using Bio-plex human 21-plex and 27-plex immunoassay kits (Bio-Rad), according to the manufacturer's instructions. The 27-plex and 21-plex panels consisted of the following analytes: IL-1alpha, IL-1beta, IL-1Ralpha, IL-2, IL-3, IL-4, IL-5, IL-6, IL-7, IL-8, IL-9, IL-10, IL12p40, IL12p70, IL-13, IL-15, IL-17, IL-18, CTACK, GROalpha, HGF, IFN-alpha2, LIF, MCP-1, MCP-3, MIF, MIG, beta-NGF, SCF, SCGF-beta, SDF-1alpha, TNF-alpha, TNF-beta, TRAIL, Eotaxin, FGF-2, G-CSF, GM-CSF, IFN-gamma, IP-10, MIP-1alpha, PDGF-bb, RANTES and VEGF. A standard range of 0.2 to 3,200 pg/mL was used. Samples and controls were run in triplicate, standards and blanks in duplicate. Error bars represent standard deviation (3 independent experiments).
Analysis of the secretome of MSCs was conducted upon pretreatment of MSCs with compound 1929 for 24 h. In this experiment, the MSCs were from donor 318006 (BM318006 P7). The mean and standard deviation values of secretome analytes were measured in pg/ml.

[2] = test system: human mesenchymal stromal cells (MSCs); assay: Cell viability assay, IncuCyte FLR with Yoyo-1 dye (membrane integrity); assay type: cell-based; details: 24 hours pretreatment
Method: Cell viability experiments were performed using the IncuCyte FLR (Essen Bioscience). Cells were stained with a cell impermeant cyanine dimer nucleic acid stain (Yoyo-1, Life Technologies). This fluorescent dye was used to measure cell membrane integrity. Pre-confluent human mesenchymal stromal cells (MSCs) were incubated for 24 hours with both the indicated small molecules […]. To kinetically measure MSC membrane integrity, images were acquired every two hours using an IncuCyte FLR live-cell image imaging system.

Q: `Cn1cc(C2=C(c3c4n(c5ccccc35)CCC(CN)C4)C(=O)NC2=O)c2ccccc21` (stereo not drawn) [Compound 1929, 3-(8-aminomethyl-6,7,8,9-tetrahydro-pyrido[1,2-a]indol-10-yl)-4-(1-methyl-1H-indol-3-yl)-pyrrole-2,5-dione hydrochloride] was tested. Which “CD11a surface expression on MSCs compared to HL-60 cells” value ([1]; 24 h pretreatment) did it give?
A: Its value is “two-fold higher”.

Q: And the “CD11a surface expression on MSCs, result in words” value ([1]; 24 h pretreatment)?
A: The value was “significant increase”.

Q: What about the “Cell surface ligand CD11a (induction of expression)” value ([1]; pretreatment of huMSCs) of the same molecule?
A: The value was “A”.

Q: And the EC50 ([1]; pretreatment of huMSCs, hydrochloride)?
A: Its EC50 is 8e-07 M.

Q: And the “MSC secretome changes, result in words” value (MSC secretome)?
A: The value was “did not substantially alter”.

Q: What about the “Mean of [IFN-g]” value (MSC secretome; 3 μM, 24 h, MSC donor 318006) of the same molecule?
A: The value was 14.9 pg/mL.

Q: And the “Mean of [IL-6]” value (MSC secretome; 3 μM, 24 h, MSC donor 318006)?
A: The value was 333.5 pg/mL.

Q: What about the “Mean of [IL-8]” value (MSC secretome; 3 μM, 24 h, MSC donor 318006) of the same molecule?
A: Its value is 31.1 pg/mL.

Q: And the “Mean of [IL-12p70]” value (MSC secretome; 3 μM, 24 h, MSC donor 318006)?
A: Its value is 13.9 pg/mL.

Q: What about the “Mean of [MCP-1]” value (MSC secretome; 3 μM, 24 h, MSC donor 318006) of the same molecule?
A: The value was 22.5 pg/mL.

Q: What about the “Mean of [VEGF]” value (MSC secretome; 3 μM, 24 h, MSC donor 318006) of the same molecule?
A: Its value is 486.8 pg/mL.

Q: And the “IL-6 level secreted by MSC” value (MSC secretome; 3 micromolar for 24 hours)?
A: Its value is “downregulation”.

Q: What about the “Fold change of analyte VEGF upon pretreatment (vs. vehicle control)” value (MSC secretome; MSC secretome) of the same molecule?
A: The value was 0.75 +/− 0.26.

Q: What about the MSC viability [2] of the same molecule?
A: Its MSC viability is “did not modify MSC viability”.

Q: With `CCc1c2c(nc3ccc(OC(=O)N4CCC(N5CCCCC5)CC4)cc13)-c1cc3c(c(=O)n1C2)COC(=O)[C@]3(O)CC` [Compound 1927, reference compound] as the molecule, how does the “CD11a surface expression on MSCs, result in words” value ([1]; 24 h pretreatment) read?
A: The value was “did not increase”.

Q: And the EC50 ([1]; Homo sapiens, pretreatment of huMSCs)?
A: The EC50 was over 3e-05 M.

Q: And the “MSC secretome changes, result in words” value (MSC secretome)?
A: Its value is “no secretome changes”.

Q: And the MSC viability [2]?
A: Its MSC viability is “did not modify MSC viability”.
